Test results taken from US6855710B2, “Substituted indolines with an inhibitory effect on various kinases and complexes of CDKs” (Boehringer Ingelheim Pharma KG, priority 1998, dated 2005).

SMILES | melting point
CC(=O)N(C)c1ccc(N/C(=C2\C(=O)Nc3ccccc32)c2ccccc2)cc1 [Example 47, (Z)-3-{1-[4-(N-acetyl-N-methyl-amino)-phenylamino]-1-phenyl-methylidene}-2-indolinone] | 287 to 288 °C
Cc1ccc(S(=O)(=O)N(CC(=O)N(C)C)c2ccc(N/C(=C3\C(=O)Nc4ccccc43)c3ccccc3)cc2)cc1 [Example 206, (Z)-3-{1-[4-(N-dimethylaminocarbonylmethyl-N-(p-tolylsulphonyl)-amino)-phenylamino]-1-phenyl-methylidene}-2-indolinone] | 223 to 226 °C
O=C(O)CCNCc1cccc(N/C(=C2\C(=O)Nc3ccc([N+](=O)[O-])cc32)c2ccccc2)c1 [Example 252, (Z)-3-{1-[3-(2-carboxyethylaminomethyl)-phenylamino]-1-phenyl-methylidene}-5-nitro-2-indolinone] | 247 to 249 °C
Cc1ccc(S(=O)(=O)N(CC(=O)N(C)C)c2ccc(N/C(=C3\C(=O)Nc4ccc([N+](=O)[O-])cc43)c3ccccc3)cc2)cc1 [Example 210, (Z)-3-{1-[4-(N-dimethylaminocarbonylmethyl-N-(p-tolylsulphonyl)-amino)-phenylamino]-1-phenyl-methylidene}-5-nitro-2-indolinone] | 198 to 200 °C
Cc1cccc(/C(Nc2ccc(CN(C)C)cc2)=C2/C(=O)Nc3ccc([N+](=O)[O-])cc32)c1 [Example 214, (Z)-3-[1-(4-dimethylaminomethyl-phenylamino)-1-(m-tolyl)-methylidene]-5-nitro-2-indolinone] | 210 °C
CN(C)Cc1ccc(N/C(=C2\C(=O)Nc3ccc([N+](=O)[O-])cc32)c2cccc(Cl)c2)cc1 [Example 224, (Z)-3-[1-(4-dimethylaminomethyl-phenylamino)-1-(3-chlorophenyl)-methylidene]-5-nitro-2-indolinone] | 274 °C
CN(C(=O)CN1CCN(Cc2ccccc2)CC1)c1ccc(N/C(=C2\C(=O)Nc3ccccc32)c2ccccc2)cc1 [Example 53, (Z)-3-{1-[4-(N-(4-benzylpiperazinomethylcarbonyl)-N-methyl-amino)-phenylamino]-1-phenyl-methylidene}-2-indolinone] | 157 to 158 °C
CC(=O)NCc1ccc(N/C(=C2\C(=O)Nc3ccccc32)c2ccccc2)cc1 [Example 56, (Z)-3-[1-(4-acetylaminomethyl-phenylamino)-1-phenyl-methylidene]-2-indolinone] | 207 to 210 °C
CN(C)CCNC(=O)CN(c1ccc(N/C(=C2\C(=O)Nc3ccccc32)c2ccccc2)cc1)S(C)(=O)=O [Example 194, (Z)-3-{1-[4-(N-(2-dimethylamino-ethylaminocarbonylmethyl)-N-methylsulphonyl-amino)-phenylamino]-1-phenyl-methylidene}-2-indolinone] | 214 to 216 °C
CC(=O)Nc1ccc(N/C(=C2\C(=O)Nc3ccccc32)c2ccccc2)cc1 [Example 31, (Z)-3-[1-(4-acetylamino-phenylamino]-1-phenyl-methylidene]-2-indolinone] | 236 to 238 °C
CN(C(=C1C(=O)Nc2ccccc21)c1ccccc1)c1ccc(C#N)cc1 [Example 61, 3-{1-[N-(4-cyanophenyl)-N-methyl-amino]-1-phenyl-methylidene}-2-indolinone] | 239 °C
CCOC(=O)CN(C)C(=O)c1cccc(N/C(=C2\C(=O)Nc3ccccc32)c2ccccc2)c1 [Example 25, (Z)-3-{1-[3-(N-ethoxycarbonylmethyl-N-methyl-aminocarbonyl)-phenylamino]-1-phenyl-methylidene}-2-indolinone] | 148 to 150 °C
CC(C)(C)OC(=O)Nc1ccc(N/C(=C2\C(=O)Nc3ccccc32)c2ccccc2)cc1 [Example 28, (Z)-3-[1-(4-tert.butoxycarbonylamino-phenylamino)-1-phenyl-methylidene]-2-indolinone] | 244 to 246 °C
CCN(CCO)CCc1ccc(N/C(=C2\C(=O)Nc3ccc([N+](=O)[O-])cc32)c2ccccc2)cc1 [Example 131, (Z)-3-{1-[4-(2-(N-(2-hydroxyethyl)-N-ethyl-amino)-ethyl)-phenylamino]-1-phenyl-methylidene}-5-nitro-2-indolinone] | 165 to 166 °C
O=C1Nc2ccc([N+](=O)[O-])cc2/C1=C(/Nc1ccc(CN2CCC(C(=O)O)CC2)cc1)c1ccccc1 [Example 177, (Z)-3-{1-[4-(4-carboxypiperidinomethyl)-phenylamino]-1-phenyl-methylidene}-5-nitro-2-indolinone] | 207 °C

Next, values leading:

melting point | SMILES
253 °C | O=C1Nc2ccc([N+](=O)[O-])cc2/C1=C(/Nc1ccc(NCCN2CCOCC2)cc1)c1ccccc1 [Example 332, (Z)-3-{1-[4-(2-morpholinoethylamino)-phenylamino]-1-phenyl-methylidene}-5-nitro-2-indolinone]
245 °C | CCCS(=O)(=O)N(CCN(C)C)c1ccc(N/C(=C2\C(=O)Nc3ccccc32)c2ccccc2)cc1 [Example 311, (Z)-3-{1-[4-(N-(2-dimethylaminoethyl)-N-propylsulphonyl-amino)-phenylamino]-1-phenyl-methylidene}-2-indolinone]
220 to 221 °C (dec.) | O=C1Nc2ccc([N+](=O)[O-])cc2/C1=C(/Nc1ccc(CNC2CC2)cc1)c1ccccc1 [Example 274, (Z)-3-{1-[4-(cyclopropylaminomethyl)-phenylamino]-1-phenyl-methylidene}-5-nitro-2-indolinone]
284 to 287 °C | CN(C)C(=O)CN(C(=O)c1ccccc1)c1ccc(N/C(=C2\C(=O)Nc3ccccc32)c2ccccc2)cc1 [Example 363, (Z)-3-{1-[4-(N-dimethylaminocarbonylmethyl-N-benzoyl-amino)-phenylamino]-1-phenyl-methylidene}-2-indolinone]
269 °C (dec.) | CN(C)CCCc1ccc(N/C(=C2\C(=O)Nc3ccc([N+](=O)[O-])cc32)c2ccccc2)cc1 [Example 283, (Z)-3-{1-[4-(3-dimethylamino-propyl)-phenylamino]-1-phenyl-methylidene}-5-nitro-2-indolinone]
254 °C | CC(C)C(=O)N(CCN1CCOCC1)c1ccc(N/C(=C2\C(=O)Nc3ccc([N+](=O)[O-])cc32)c2ccccc2)cc1 [Example 336, (Z)-3-{1-[4-(N-(2-morpholinoethyl)-N-isopropylcarbonyl-amino)-phenylamino]-1-phenyl-methylidene}-5-nitro-2-indolinone]
121 to 123 °C | CN(c1ccc(N/C(=C2\C(=O)Nc3ccccc32)c2ccccc2)cc1)S(=O)(=O)CCN1CCCCC1 [Example 383, (Z)-3-{1-[4-(N-(2-piperidinoethylsulphonyl)-N-methyl-amino)-phenylamino]-1-phenyl-methylidene}-2-indolinone]
215 to 217 °C | CN(C)CCCOc1ccc(N/C(=C2\C(=O)Nc3ccccc32)c2ccccc2)cc1 [Example 286, (Z)-3-{1-[4-(3-dimethylaminopropyloxy)-phenylamino]-1-phenyl-methylidene}-2-indolinone]
238 to 239 °C | CN(C(=O)CN)c1ccc(N/C(=C2\C(=O)Nc3ccccc32)c2ccccc2)cc1 [Example 366, (Z)-3-{1-[4-(N-aminomethylcarbonyl-N-methyl-amino)-phenylamino]-1-phenyl-methylidene}-2-indolinone]
